The target of the experiment is T1, human androgen receptor (Homo sapiens, UniProt P10275).
T1 construct: expressed in transfected cells; host or cells: Chinese hamster ovary (CHO) cells, cell line CHO-AR-pMMTV-LUC 1G12-A5-CA
T1 sequence (P10275 1-920): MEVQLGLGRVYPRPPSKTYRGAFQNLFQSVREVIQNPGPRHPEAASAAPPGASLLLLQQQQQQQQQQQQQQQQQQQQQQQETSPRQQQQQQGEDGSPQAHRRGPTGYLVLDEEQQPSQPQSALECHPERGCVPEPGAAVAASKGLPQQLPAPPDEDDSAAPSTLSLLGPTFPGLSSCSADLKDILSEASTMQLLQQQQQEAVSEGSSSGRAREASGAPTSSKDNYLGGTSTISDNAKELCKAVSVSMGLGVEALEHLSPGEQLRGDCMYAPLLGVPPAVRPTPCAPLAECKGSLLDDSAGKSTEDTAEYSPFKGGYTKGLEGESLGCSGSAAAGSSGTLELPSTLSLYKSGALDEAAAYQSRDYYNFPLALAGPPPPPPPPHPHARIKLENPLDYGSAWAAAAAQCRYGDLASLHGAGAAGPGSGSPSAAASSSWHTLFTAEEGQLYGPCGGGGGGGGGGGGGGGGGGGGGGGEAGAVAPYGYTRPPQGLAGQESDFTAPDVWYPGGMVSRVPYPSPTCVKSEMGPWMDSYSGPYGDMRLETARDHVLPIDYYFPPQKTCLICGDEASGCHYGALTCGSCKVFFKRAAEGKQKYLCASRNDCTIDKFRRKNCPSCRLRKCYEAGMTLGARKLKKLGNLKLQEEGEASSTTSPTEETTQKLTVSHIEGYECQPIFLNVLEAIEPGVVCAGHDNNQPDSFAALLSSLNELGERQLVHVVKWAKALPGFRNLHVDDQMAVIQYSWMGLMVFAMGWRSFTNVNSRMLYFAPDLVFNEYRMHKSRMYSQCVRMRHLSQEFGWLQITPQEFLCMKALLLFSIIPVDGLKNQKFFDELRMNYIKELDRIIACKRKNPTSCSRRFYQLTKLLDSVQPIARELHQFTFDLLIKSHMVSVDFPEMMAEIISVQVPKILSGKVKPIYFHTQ
Briefly: Androgen receptor transactivation assay, androgenic activity in the presence of 0.1 µmol/l onapristone (CHO-AR-pMMTV-LUC cells; Table 5). It counts as cell-based. As to conditions: for ago efficacy: maximal intrinsic activity in the presence of 100 nM DHT set at 1.00; for ago potency: potency expressed as percentage of DHT activity. As for the experimental part:
The androgenic activity (EC50, potency, and efficacy) of the compounds in Table 5 was determined in an in vitro bioassay of Chinese hamster ovary (CHO) cells stably transfected with the human androgen receptor expression plasmid and a reporter plasmid in which the MMTV promotor is linked to the luciferase reporter gene. The cell line CHO-AR-pMMTV-LUC 1G12-A5-CA is described in Schoonen et al. (J. Steroid Biochem. Molec. Biol. […]; 74: 213-222). The androgen receptor activity of compounds was determined in the presence of 0.1 µmol/l onapristone. The maximal efficacy in the presence of 100 nmol/l DHT was set as 100%. The potencies are expressed as percentage of DHT activity. Table 5 Androgen receptor activity

Each structure is given as a SMILES string.

As for `COc1ccc2c(Sc3ccccc3[N+](=O)[O-])cn(Cc3cc(F)c(F)c(F)c3)c2c1` [Compound 94, 6-Methoxy-3-(2-nitro-phenylsulfanyl)-1-(3,4,5-trifluoro-benzyl)-1H indole], the ago efficacy result is “++ (≥0.80)”; the ago potency result was “+ (between 1% and 5%)”.
Take `COc1ccc2c(Sc3ccccc3[N+](=O)[O-])cn(Cc3cc(F)cc(F)c3F)c2c1` [Compound 95, 6-Methoxy-3-(2-nitro-phenylsulfanyl)-1-(2,3,5-trifluoro-benzyl)-1H-indole]: the ago efficacy result is given as “++ (≥0.80)”; the ago potency entry was “± (between 0.1 % and 1%)”.
Consider `COc1ccc2c(Sc3ccccc3[N+](=O)[O-])cn(Cc3ccc(Cl)nc3)c2c1` [Compound 96, 1-(6-Chloro-pyridin-3-ylmethyl)-6-methoxy-3-(2-nitro-phenylsulfanyl)-1H-indole], for which the ago efficacy result is “± (between 0.20 and 0.50)”; the ago potency result was “± (between 0.1 % and 1%)”.
Regarding `O=C(CF)Nc1ccc2c(Sc3ccccc3[N+](=O)[O-])cn(Cc3cc(F)cc(F)c3)c2c1` [Compound 97, N-[1-(3,5-Difluoro-benzyl)-3-(2-nitro-phenylsulfanyl)-1H-indol-6-yl]-2-fluoro-acetamide], the ago efficacy entry is listed as “++ (≥0.80)”; the ago potency result was “+ (between 1% and 5%)”.
As to `O=C(Nc1ccc2c(Sc3ccccc3[N+](=O)[O-])cn(Cc3cc(F)cc(F)c3)c2c1)C(F)F` [Compound 98, N-[1-(3,5-Difluoro-benzyl)-3-(2-nitro-phenylsulfanyl)-1H-indol-6-yl]-2,2-difluoro-acetamide], the ago efficacy result is “+ (between 0.50 and 0.80)”; the ago potency entry is reported as “++ (>5%)”.
As for `CCC(=O)Nc1ccc2c(Sc3ccccc3[N+](=O)[O-])cn(Cc3cc(F)cc(F)c3)c2c1` [Compound 99, N-[1-(3,5-Difluoro-benzyl)-3-(2-nitro-phenylsulfanyl)-1H-indol-6-yl]-propionamide], the ago efficacy result is “+ (between 0.50 and 0.80)”; the ago potency entry is “± (between 0.1 % and 1%)”.
As to `O=C(CF)Nc1ccc2c(Sc3ccccc3[N+](=O)[O-])cn(Cc3ccccn3)c2c1` [Compound 100, 2-Fluoro-N-[3-(2-nitro-phenylsulfanyl)-1-pyridin-2-ylmethyl-1H-indol-6-yl]-acetamide], the ago efficacy entry was “++ (≥0.80)”; the ago potency entry is “+ (between 1% and 5%)”.
Take `CC(=O)Nc1ccc2c(Sc3ccccc3[N+](=O)[O-])cn(Cc3ccccn3)c2c1` [Compound 101, N-[3-(2-Nitro-phenylsulfanyl)-1-pyridin-2-ylmethyl-1H-indol-6-yl]-acetamide]: the ago efficacy result was “+ (between 0.50 and 0.80)”; the ago potency entry was “+ (between 1% and 5%)”.
Turning to `CCC(=O)Nc1ccc2c(Sc3ccccc3[N+](=O)[O-])cn(Cc3ccccn3)c2c1` [Compound 102, N-[3-(2-Nitro-phenylsulfanyl)-1-pyridin-2-ylmethyl-1H-indol-6-yl]-propionamide], the ago efficacy result is “+ (between 0.50 and 0.80)”; the ago potency entry is “+ (between 1% and 5%)”.
Regarding `CC(=O)Nc1ccc2c(Sc3ccccc3[N+](=O)[O-])cn(Cc3cccnc3)c2c1` [Compound 103, N-[3-(2-Nitro-phenylsulfanyl)-1-pyridin-3-ylmethyl-1H-indol-6-yl]-acetamide], the ago efficacy result was “+ (between 0.50 and 0.80)”; the ago potency result was “+ (between 1% and 5%)”.
As for `O=C(CF)Nc1ccc2c(Sc3ccccc3[N+](=O)[O-])cn(Cc3cccnc3)c2c1` [Compound 104, 2-Fluoro-N-[3-(2-nitro-phenylsulfanyl)-1-pyridin-3-ylmethyl-1H-indol-6-yl]-acetamide], the ago efficacy result is “- (<0.20)”; the ago potency result is “+ (between 1% and 5%)”.
As for `CCC(=O)Nc1ccc2c(Sc3ccccc3[N+](=O)[O-])cn(Cc3cccnc3)c2c1` [Compound 105, N-[3-(2-Nitro-phenylsulfanyl)-pyridin-3-ylmethyl-1H-indol-6-yl]-propionamide], the ago efficacy entry is “± (between 0.20 and 0.50)”; the ago potency entry was “+ (between 1% and 5%)”.
Regarding `CS(=O)(=O)Nc1ccc2c(Sc3ccccc3[N+](=O)[O-])cn(Cc3cc(F)cc(F)c3)c2c1` [Compound 106, N-[1-(3,5-Difluoro-benzyl)-3-(2-nitro-phenylsulfanyl)-1H-indol-6-yl]-methanesulfonamide], the ago efficacy entry was “++ (≥0.80)”; the ago potency result is “+ (between 1% and 5%)”.
For the compound `O=[N+]([O-])c1ccccc1Sc1cn(Cc2cc(F)cc(F)c2)c2cc(NS(=O)(=O)c3ccsc3)ccc12` [Compound 107, Thiophene-3-sulfonic acid [1-(3,5-difluoro-benzyl)-3-(2-nitro-phenylsulfanyl)-1H-indol-6-yl]-amide], the ago efficacy entry was “++ (≥0.80)”; the ago potency entry is “+ (between 1% and 5%)”.
`Cn1cnc(S(=O)(=O)Nc2ccc3c(Sc4ccccc4[N+](=O)[O-])cn(Cc4cc(F)cc(F)c4)c3c2)c1` [Compound 108, 1-Methyl-1H-imidazole-4-sulfonic acid [1-(3,5-difluoro-benzyl)-3-(2-nitro-phenylsulfanyl)-1H-indol-6-yl]-amide]: the ago efficacy result is reported as “++ (≥0.80)”; the ago potency result is “+ (between 1% and 5%)”.
As to `CN(C)C(=O)c1ccc2c(Sc3ccccc3[N+](=O)[O-])cn(Cc3ccccn3)c2c1` [Compound 109, 3-(2-Nitro-phenylsulfanyl)-1-pyridin-2-ylmethyl-1H-indole-6-carboxylic acid dimethylamide], the ago efficacy result is “++ (≥0.80)”; the ago potency entry was “+ (between 1% and 5%)”.
On to `CNC(=O)c1ccc2c(Sc3ccccc3[N+](=O)[O-])cn(Cc3ccccn3)c2c1` [Compound 110, 3-(2-Nitro-phenylsulfanyl)-1-pyridin-2-ylmethyl-1H-indole-6-carboxylic acid methylamide], for which the ago efficacy result is “+ (between 0.50 and 0.80)”; the ago potency result is “+ (between 1% and 5%)”.
For the compound `NC(=O)c1ccc2c(Sc3ccccc3[N+](=O)[O-])cn(Cc3ccccn3)c2c1` [Compound 111, 3-(2-Nitro-phenylsulfanyl)-1-pyridin-2-ylmethyl-1H-indole-6-carboxylic acid amide], the ago efficacy entry is “± (between 0.20 and 0.50)”; the ago potency entry is “± (between 0.1 % and 1%)”.
Take `CNC(=O)c1ccc2c(Sc3ccccc3[N+](=O)[O-])cn(Cc3cccnc3)c2c1` [Compound 112, 3-(2-Nitro-phenylsulfanyl)-1-pyridin-3-ylmethyl-1H-indole-6-carboxylic acid methylamide]: the ago efficacy result is “± (between 0.20 and 0.50)”; the ago potency entry is “+ (between 1% and 5%)”.
With `CCNC(=O)c1ccc2c(Sc3ccccc3[N+](=O)[O-])cn(Cc3cccnc3)c2c1` [Compound 113, 3-(2-Nitro-phenylsulfanyl)-1-pyridin-3-ylmethyl-1H-indole-6-carboxylic acid ethylamide], the ago efficacy entry was “+ (between 0.50 and 0.80)”; the ago potency entry is “+ (between 1% and 5%)”.
In the case of `O=C(NC1CC1)c1ccc2c(Sc3ccccc3[N+](=O)[O-])cn(Cc3cccnc3)c2c1` [Compound 114, 3-(2-Nitro-phenylsulfanyl)-1-pyridin-3-ylmethyl-1H-indole-6-carboxylic acid cyclopropylamide], the ago efficacy result was “++ (≥0.80)”; the ago potency entry is “+ (between 1% and 5%)”.
Regarding `COc1ccc2c(Sc3ccccc3[N+](=O)[O-])cn(Cc3cncnc3)c2c1` [Compound 115, 6-Methoxy-3-(2-nitro-phenylsulfanyl)-1-pyrimidin-5-ylmethyl-1H-indole], the ago efficacy entry was “+ (between 0.50 and 0.80)”; the ago potency result is “++ (>5%)”.
`COc1ccc2c(Sc3ccccc3[N+](=O)[O-])cn(Cc3ccncn3)c2c1` [Compound 116, 6-Methoxy-3-(2-nitro-phenylsulfanyl)-1-pyrimidin-4-ylmethyl-1H-indole]: the ago efficacy entry is “+ (between 0.50 and 0.80)”; the ago potency entry is “+ (between 1% and 5%)”.
